# Data: US9688710B2, “Inhibitors of sodium glucose cotransporter 1” (LEXICON PHARMACEUTICALS, INC., priority 2012, dated 2017)
# Legend:
# [1] = molecular target: Human sodium/glucose co-transporter type 2 (SGLT2) (Homo sapiens (Human), UniProt P31639); assay: In vitro human SGLT2 inhibition assay (14C-AMG uptake); assay type: cell-based; set-up: key to SGLT2 (human SGLT2 IC50): ***: a value less than 0.01 μM; **: a value less than 0.1 μM; *: a value less than 1 μM; —: a value not measured or exceeding μM; conditions: HEK293 cells expressing human HA-SGLT2, 14C-AMG uptake
# Summary of the method: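 Uptake of 14C-AMG (100 nCi) was followed in a stable HEK293 HA-SGLT2 line over 1-2 h at 37 °C with or without compound. Buffer: 140 mM NaCl, 10 mM HEPES, 5 mM Tris, 1 mg/mL BSA, pH 7.3. Readout was scintillation counting after washing.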
# [2] = molecular target: Human sodium/glucose co-transporter type 1 (SGLT1) (Homo sapiens (Human), UniProt P13866); assay: In vitro human SGLT1 inhibition assay (14C-AMG uptake); assay type: cell-based; set-up: key to SGLT1 (human SGLT1 IC50): ***: a value less than 0.01 μM; **: a value less than 0.1 μM; *: a value less than 1 μM; —: a value not measured or exceeding μM; conditions: HEK293 cells expressing human HA-SGLT1, 14C-AMG uptake
# Summary of the method: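 Uptake of 14C-AMG (100 nCi) was measured by scintillation counting after 1–2 h at 37 °C, 5% CO2, with or without compound. The buffer was pH 7.3 with 140 mM NaCl, 1 mM CaCl2, 1 mM MgCl2 and 1 mg/mL BSA. Cells were a stable HEK293 line carrying HA-SGLT1 (human), plated overnight at 30,000 per well.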
# Chain of Human sodium/glucose co-transporter type 1 (SGLT1) (P13866 whole entry): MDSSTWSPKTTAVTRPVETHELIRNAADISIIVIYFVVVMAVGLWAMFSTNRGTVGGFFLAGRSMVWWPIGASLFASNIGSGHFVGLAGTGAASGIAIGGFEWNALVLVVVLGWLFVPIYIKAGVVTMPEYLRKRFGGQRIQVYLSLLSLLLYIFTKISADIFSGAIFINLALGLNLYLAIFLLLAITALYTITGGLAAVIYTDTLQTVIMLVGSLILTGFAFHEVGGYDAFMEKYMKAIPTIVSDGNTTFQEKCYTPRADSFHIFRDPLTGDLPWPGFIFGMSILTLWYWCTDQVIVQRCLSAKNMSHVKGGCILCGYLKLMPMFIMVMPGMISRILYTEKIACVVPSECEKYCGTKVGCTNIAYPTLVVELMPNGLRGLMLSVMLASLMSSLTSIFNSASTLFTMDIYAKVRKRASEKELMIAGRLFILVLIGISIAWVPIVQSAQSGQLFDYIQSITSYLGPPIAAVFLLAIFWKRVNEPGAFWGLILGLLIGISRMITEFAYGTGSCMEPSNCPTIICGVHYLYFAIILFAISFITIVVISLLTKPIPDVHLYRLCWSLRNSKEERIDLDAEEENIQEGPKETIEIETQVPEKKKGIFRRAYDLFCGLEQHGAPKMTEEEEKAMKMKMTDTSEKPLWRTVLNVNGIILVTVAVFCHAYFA
# Chain of Human sodium/glucose co-transporter type 2 (SGLT2) (P31639 whole entry): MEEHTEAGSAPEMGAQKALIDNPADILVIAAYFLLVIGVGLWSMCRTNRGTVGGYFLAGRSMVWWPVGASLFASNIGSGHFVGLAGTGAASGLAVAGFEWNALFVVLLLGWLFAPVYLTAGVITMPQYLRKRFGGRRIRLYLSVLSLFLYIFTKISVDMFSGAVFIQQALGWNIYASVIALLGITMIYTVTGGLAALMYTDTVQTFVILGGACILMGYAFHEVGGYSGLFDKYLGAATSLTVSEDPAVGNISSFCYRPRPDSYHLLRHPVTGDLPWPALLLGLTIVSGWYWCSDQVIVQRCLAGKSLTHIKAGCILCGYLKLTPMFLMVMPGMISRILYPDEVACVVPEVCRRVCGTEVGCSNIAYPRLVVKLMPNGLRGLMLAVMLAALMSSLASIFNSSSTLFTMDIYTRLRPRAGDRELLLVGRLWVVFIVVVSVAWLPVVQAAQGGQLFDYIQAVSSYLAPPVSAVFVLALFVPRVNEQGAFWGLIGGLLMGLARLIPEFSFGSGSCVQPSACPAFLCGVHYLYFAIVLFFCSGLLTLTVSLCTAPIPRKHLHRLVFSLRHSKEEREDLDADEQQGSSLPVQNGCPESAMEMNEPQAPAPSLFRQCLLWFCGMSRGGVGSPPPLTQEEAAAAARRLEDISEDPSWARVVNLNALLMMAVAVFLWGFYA
Structure (SMILES),IC50 [1],IC50 [2],SGLT2 (human SGLT2 IC50) [1],SGLT1 (human SGLT1 IC50) [2]
"COc1ccc(Cc2cc([C@@H]3O[C@H](SC)[C@@H](O)[C@H](O)[C@H]3O)ccc2OC(F)(F)F)cc1 [(2S,3R,4R,5S,6R)-2-(3-(4-methoxybenzyl)-4-(trifluoromethoxy)phenyl)-6-(methylthio)tetrahydro-2H-pyran-3,4,5-triol]",,,—,—
"CS[C@H]1OC(c2ccc(C)c(Cc3ccc(OCCCNC(CO)CO)cc3)c2)[C@H](O)[C@@H](O)[C@@H]1O (stereo partly drawn) [(3R,4R,5S,6R)-2-(3-(4-(3-((1,3-dihydroxypropan-2-yl)amino)propoxy)benzyl)-4-methylphenyl)-6-(methylthio)tetrahydro-2H-pyran-3,4,5-triol]",< 0.01 µM,< 0.01 µM,,
"CS[C@H]1O[C@@H](c2ccc(C)c(Cc3ccc(CCCC(=O)NC4(C(=O)N5CCN(C)CC5)CCOCC4)cc3)c2)[C@H](O)[C@@H](O)[C@@H]1O [4-(4-(2-methyl-5-((2S,3R,4R,5S,6R)-3,4,5-trihydroxy-6-(methylthio)tetrahydro-2H-pyran-2-yl)benzyl)phenyl)-N-(4-(4-methylpiperazine-1-carbonyl)tetrahydro-2H-pyran-4-yl)butanamide]",< 0.01 µM,< 0.01 µM,,
"CS[C@H]1O[C@@H](c2ccc(C)c(Cc3ccc(OCC(=O)NC(C)(C)C(N)=O)cc3)c2)[C@H](O)[C@@H](O)[C@@H]1O [2-methyl-2-(2-(4-(2-methyl-5-((2S,3R,4R,5S,6R)-3,4,5-trihydroxy-6-(methylthio)tetrahydro-2H-pyran-2-yl)benzyl)phenoxy)acetamido)propanamide]",< 0.01 µM,< 0.1 µM,,
"CS[C@H]1O[C@@H](c2ccc(C)c(Cc3ccc(CCCCCNC(=O)NC(C)(C)CO)cc3)c2)[C@H](O)[C@@H](O)[C@@H]1O [1-(1-hydroxy-2-methylpropan-2-yl)-3-(5-(4-(2-methyl-5-((2S,3R,4R,5S,6R)-3,4,5-trihydroxy-6-(methylthio)tetrahydro-2H-pyran-2-yl)benzyl)phenyl)pentyl)urea]",< 0.01 µM,< 0.1 µM,,
"CS[C@H]1O[C@@H](c2ccc(C)c(Cc3ccc(CCCC(=O)NC(C)(C)C(=O)NCCN(C)C)cc3)c2)[C@H](O)[C@@H](O)[C@@H]1O [N-(1-((2-(dimethylamino)ethyl)amino)-2-methyl-1-oxopropan-2-yl)-4-(4-(2-methyl-5-((2S,3R,4R,5S,6R)-3,4,5-trihydroxy-6-(methylthio)tetrahydro-2H-pyran-2-yl)benzyl)phenyl)butanamide]",< 0.01 µM,< 0.01 µM,,
"CS[C@H]1O[C@@H](c2ccc(Cl)c(Cc3ccc(OCCNC(=O)N4CCN(C)CC4)cc3)c2)[C@H](O)[C@@H](O)[C@@H]1O [N-(2-(4-(2-chloro-5-((2S,3R,4R,5S,6R)-3,4,5-trihydroxy-6-(methylthio)tetrahydro-2H-pyran-2-yl)benzyl)phenoxy)ethyl)-4-methylpiperazine-1-carboxamide]",< 0.01 µM,< 0.01 µM,,
"CS[C@H]1O[C@@H](c2ccc(C)c(Cc3ccc(CCCCNC(C)(C)CO)cc3)c2)[C@H](O)[C@@H](O)[C@@H]1O [(2S,3R,4R,5S,6R)-2-(3-(4-(4-((1-hydroxy-2-methylpropan-2-yl)amino)butyl)benzyl)-4-methylphenyl)-6-(methylthio)tetrahydro-2H-pyran-3,4,5-triol]",< 0.01 µM,< 0.1 µM,,
"CS[C@H]1O[C@@H](c2ccc(C)c(Cc3ccc(CCCC(=O)NC(C)(C)CO)cc3)c2)[C@H](O)[C@@H](O)[C@@H]1O [N-(1-hydroxy-2-methylpropan-2-yl)-4-(4-(2-methyl-5-((2S,3R,4R,5S,6R)-3,4,5-trihydroxy-6-(methylthio)tetrahydro-2H-pyran-2-yl)benzyl)phenyl)butanamide]",< 0.01 µM,< 0.01 µM,,
"CS[C@H]1O[C@@H](c2ccc(C)c(Cc3ccc(CCCCC(=O)NC(C)(C)C(=O)N4CCN(C)CC4)cc3)c2)[C@H](O)[C@@H](O)[C@@H]1O [N-(2-methyl-1-(4-methylpiperazin-1-yl)-1-oxopropan-2-yl)-5-(4-(2-methyl-5-((2S,3R,4R,5S,6R)-3,4,5-trihydroxy-6-(methylthio)tetrahydro-2H-pyran-2-yl)benzyl)phenyl)pentanamide]",< 0.01 µM,< 0.01 µM,,
"CS[C@H]1O[C@@H](c2ccc(C)c(Cc3ccc(CCCC(=O)NC(C)(C)C(=O)N4CCOCC4)cc3)c2)[C@H](O)[C@@H](O)[C@@H]1O [N-(2-methyl-1-morpholino-1-oxopropan-2-yl)-4-(4-(2-methyl-5-((2S,3R,4R,5S,6R)-3,4,5-trihydroxy-6-(methylthio)tetrahydro-2H-pyran-2-yl)benzyl)phenyl)butanamide]",< 0.01 µM,< 0.01 µM,,
"CS[C@H]1O[C@@H](c2ccc(C)c(Cc3ccc(/C=C/C[C@H](N)C(=O)O)cc3)c2)[C@H](O)[C@@H](O)[C@@H]1O [(S,E)-2-amino-5-(4-(2-methyl-5-((2S,3R,4R,5S,6R)-3,4,5-trihydroxy-6-(methylthio)tetrahydro-2H-pyran-2-yl)benzyl)phenyl)pent-4-enoic acid]",< 0.01 µM,< 0.1 µM,,

# The next lines start with the values.
IC50 [1],IC50 [2],SGLT2 (human SGLT2 IC50) [1],SGLT1 (human SGLT1 IC50) [2],Structure (SMILES)
< 0.01 µM,< 0.01 µM,,,"CS[C@H]1O[C@@H](c2ccc(C)c(Cc3ccc(CCCCNC(CO)(CO)CO)cc3)c2)[C@H](O)[C@@H](O)[C@@H]1O [(2S,3R,4R,5S,6R)-2-(3-(4-(4-((1,3-dihydroxy-2-(hydroxymethyl)propan-2-yl)amino)butyl)benzyl)-4-methylphenyl)-6-(methylthio)tetrahydro-2H-pyran-3,4,5-triol]"
< 0.01 µM,< 0.1 µM,,,"CS[C@H]1O[C@@H](c2ccc(Cl)c(Cc3ccc(OCCNC(=O)OC(C)(C)C)cc3)c2)[C@H](O)[C@@H](O)[C@@H]1O [tert-butyl (2-(4-(2-chloro-5-((2S,3R,4R,5S,6R)-3,4,5-trihydroxy-6-(methylthio)tetrahydro-2H-pyran-2-yl)benzyl)phenoxy)ethyl)carbamate]"
< 0.01 µM,< 0.01 µM,,,"CCN(CC)CCOc1ccc(Cc2cc([C@@H]3O[C@H](SC)[C@@H](O)[C@H](O)[C@H]3O)ccc2Cl)cc1 [(2S,3R,4R,5S,6R)-2-(4-chloro-3-(4-(2-(diethylamino)ethoxy)benzyl)phenyl)-6-(methylthio)tetrahydro-2H-pyran-3,4,5-triol]"
< 0.01 µM,< 0.01 µM,,,"CS[C@H]1O[C@@H](c2ccc(C)c(Cc3ccc(CCCC(=O)NC(CO)(CO)CO)cc3)c2)[C@H](O)[C@@H](O)[C@@H]1O [N-(1,3-dihydroxy-2-(hydroxymethyl)propan-2-yl)-4-(4-(2-methyl-5-((2S,3R,4R,5S,6R)-3,4,5-trihydroxy-6-(methylthio)tetrahydro-2H-pyran-2-yl)benzyl)phenyl)butanamide]"
< 0.01 µM,< 0.01 µM,,,"CS[C@H]1O[C@@H](c2ccc(Cl)c(Cc3ccc(OCCCC(=O)NC(C)(C)CO)cc3)c2)[C@H](O)[C@@H](O)[C@@H]1O [4-(4-(2-chloro-5-((2S,3R,4R,5S,6R)-3,4,5-trihydroxy-6-(methylthio)tetrahydro-2H-pyran-2-yl)benzyl)phenoxy)-N-(1-hydroxy-2-methylpropan-2-yl)butanamide]"
< 0.01 µM,< 0.01 µM,,,"CS[C@H]1O[C@@H](c2ccc(C)c(Cc3ccc(CCCCNC(=O)C(C)(C)CO)cc3)c2)[C@H](O)[C@@H](O)[C@@H]1O [3-hydroxy-2,2-dimethyl-N-(4-(4-(2-methyl-5-((2S,3R,4R,5S,6R)-3,4,5-trihydroxy-6-(methylthio)tetrahydro-2H-pyran-2-yl)benzyl)phenyl)butyl)propanamide]"
